# Values joined by “and” are separate entries in the source; they are usually repeats but may differ in a detail not shown here. Equal entries are not always repeated. “Also recorded” adds a separate entry of the source. Structures can show the parent of a compound that is named as a salt. Where two headings read alike, the source gives them in different places.
# Experiments:
# [1] = test system: mold fungi; test: miniboard test, molds (surface mildew) (Examples 8-12); settings: for Growth of fungi, Freshly cut pine sapwood, Molds (score): average of ten replicates; for Growth of fungi, Molds (score): Example 12, pH 10; for synergism with trimethylcoco ammonium chloride (in words): mold tests, Examples 8-11
# Description: (§1) Cladosporium sphaerospermum
# (§2) The other half of the miniboards was dipped into the control agent solutions for 20 seconds. […] The pH was 8.5-10.0. The board were allowed to drip and they were inoculated with the above mentioned spore suspensions of sapstain and mold fungi. The boards were stored at 100% relative humidity (R.H.) at 20° C. They were inspected and visually rated after 3 weeks incubation time.
# (§3) 1--some traces of fungal growth
# (§4) 2--several colonies of growing fungi
# (§5) 3--25% of the surface discoloured
# (§6) 4--50% of the surface discoloured
# (§7) The miniboards were inspected and rated after 3 weeks incubation time at 20° C. and 100% R.H. Results are presented in tables 3 and 4 as the average score of ten replicate samples.
# (§8) Results are presented in tables 5-7 as the average score of ten replicate samples.
# (§9) The miniboards were treated as in foregoing examples but the treatment solution contained dioctyldimethylammonium chloride instead of trimethylcocoammonium chloride.
# [2] = test system: sapstain fungi; test: miniboard test, sapstain (Examples 8-12); settings: for Growth of fungi, Sapstain (score): Example 12, pH 10
# Description: (§10) Laboratory experiments were carried out by making (1) dish cultures with Czapek-Dox agar at a temperature of 23° C. and (2) mini-board tests at a temperature of 23° C. and a humidity of 100%. The dish cultures had been inoculated with spores of the fungus Aureobasidium pullulans. This is a known fungus causing sapstain. In the mini-board tests, the inoculation was carried out using a spore suspension which contained a mixture of the spores of sapstain fungi. The sapstain fungi used were Aureobasidium pullulans, Sclerophoma entoxylina and Ceratocystis pilifera.
# as §2, §3, §4, §5, §6, §7, §8, §9
# [3] = test system: sapstain fungi (Aureobasidium pullulans, Sclerophoma entoxylina, Ceratocystis pilifera); test: mini-board test on timber, sapstain; settings: for Grading points, Sapstain: Example 2, 1.2% active ingredient in wetting solution, pH 8.4, fresh timber, 23° C., 1 month, 0-5 very good, 6-10 average, 11-15 poor, 16-20 very poor; for synergism with Na-2-ethylhexanoate (in words): examples 2, 5, 6 and 12
# Description: as §10
# (§11) In the mini-board tests it was studied whether the toxic effect is retained on the surface of timber. The dimensions of the mini-boards were 10×50×300 mm. They had been made from newly felled pine. The pieces were immersed for 20 s into the solutions studied and were then weighed and inoculated. The control pieces were immersed into pure water. Some of the test pieces were dried for 1 month at 23° C. at a humidity of 100% in dishes covered with a plastic sheet, whereafter the sapstain and the mildew growth in them were assessed visually.
# (§12) The control agent composition presented in Test 4 of Example 3 was modified in such a way that part of the dodecylbenzyldimethylammonium chloride was replaced with technical dialkyldimethylammonium chloride which contained, bound with nitrogen, C8 -C18 alkyl groups as follows: […], C10 -9%, C12 -47%, C14 -18%, C16 -8% and C18 -10%.
# [4] = test system: Aureobasidium pullulans; test: dish cultures, growth inhibition of A. pullulans (Czapek-Dox agar); assay type: cell-based; settings: 360 h
# Description: as §10, with “pilifera. […]” for “pilifera.”
# In dish cultures with A. pullulans fungus it was observed that growth was inhibited at, for example, the following concentrations of the control agents studied within a culture period of 15 days:
# Using certain mixtures of these control agents, fungus growth could be inhibited at the following concentrations, for example: […]
# [5] = test system: surface mildew; test: mini-board test on timber, surface mildew; settings: Example 2; 1.2% active ingredient in wetting solution, pH 8.4, fresh timber, 23° C., 1 month; 0-5 very good, 6-10 average, 11-15 poor, 16-20 very poor
# Description: as §10, §11, §12
# [6] = known organic acids used as control agents; cited from earlier work
# [7] = test system: sapstain fungi; test: miniboard test, sapstain (Examples 8-12); settings: TABLE 2; […] active ingredients, pH 8.5-10.0, 5 weeks, 20° C., 100% R.H.; average of ten replicates
# [8] = test system: sapstain fungi (Aureobasidium pullulans, Sclerophoma entoxylina, Ceratocystis pilifera); test: mini-board one-side immersion test, sapstain (DDC / 2-EHA-Na); settings: 3 weeks, 23° C.
# Description: as §10
# […] The immersion period was 20 s. The boards were allowed to drip, and they were inoculated with the above-mentioned spore suspension of sapstain fungi.
# [9] = test system: mold fungi; test: miniboard test, molds (surface mildew) (Examples 8-12); settings: TABLE 2; […] active ingredients, pH 8.5-10.0, 5 weeks, 20° C., 100% R.H.; average of ten replicates
# [10] = test system: mildew fungi (Cladosporium sphaerospermum, Penicillum Sp., Aspergillus amstelodami); test: mini-board one-side immersion test, mildew growth (DDC / 2-EHA-Na); settings: Example 6; dry matter of wetting solution 1.5%
# Description: The concentration of the solution was 2.5%. The immersion period was 20 s. The boards were allowed to drip, and they were inoculated with the above-mentioned spore suspension of sapstain fungi.
# The following experiment was carried out as in Example 5, but a suspension of spores of the mildew fungi listed below was used for the inoculations:
# as §1
# [11] = TABLES 5-7, […] active ingredients, pH 8.5-10.0, rated as in examples 9-10
# [12] = TABLES 5-7, […] active ingredients, pH 8.5-10.0, rated as in examples 9-10, average of ten replicates
# [13] = pH 2.5, read-out: concentration at which growth was inhibited
# [14] = pH 5, read-out: concentration at which growth was inhibited
# [15] = pH 7, read-out: concentration at which growth was inhibited
# [16] = pH 2.5, 15 days culture, single agents, read-out: concentration at which growth was inhibited
# [17] = pH 5.0, 15 days culture, single agents, read-out: concentration at which growth was inhibited
# [18] = pH 7.0, 15 days culture, single agents, read-out: concentration at which growth was inhibited
# [19] = Example 5, Test 1, dry matter of wetting solution 1.5%
# [20] = Example 5, Test 2, dry matter of wetting solution […]
# [21] = TABLE 1, […] active ingredients, pH 8.5-10, 3 weeks, brackets not explained
# [22] = TABLES 3-4, […] active ingredients, pH 8.5-10.0, 3 weeks, 20° C., 100% R.H.
# [23] = TABLES 3-4, […] active ingredients, pH 8.5-10.0, 3 weeks, 20° C., 100% R.H., average of ten replicates
molecule,measurement,setting,value
CCCCCCCCCC(=O)O [Na-caprinoate],"Growth of fungi, Freshly cut pine sapwood, Molds (score)",[1]; [11],20
same,"Growth of fungi, Freshly cut pine sapwood, Sapstain (score)",[2]; [12],2.5
"CCCCCCCCCCCC[N+](C)(C)Cc1ccccc1.[Cl-] [BAC, dodecylbenzyldimethylammonium chloride]","Grading points, Sapstain",[3],2 points and 1.5 points
same,synergism with Na-2-ethylhexanoate (in words),[3],proved
same,MIC,[4]; [13],50 µg/mL
same,MIC,[4]; [14],10 µg/mL
same,MIC,[4]; [15],2 µg/mL
same,"Grading points, Surface mildew",[5],8.5 points and 4.5 points
CCCCCCCCCC(=O)O [Capric acid],"Grading points, Sapstain",[3],3.5 points
same,MIC,[4]; [16],50 µg/mL
same,MIC,[4]; [17],100 µg/mL
same,MIC,[4]; [18],> 100 µg/mL
same,"Grading points, Surface mildew",[5],14 points
"CCCCCCCCCCCC[n+]1ccccc1 [DPC, dodecylpyridinium chloride]","Grading points, Sapstain",[3],3 points
same,"Grading points, Surface mildew",[5],16 points
"CCCCCCCCCCCC[N+](C)(C)C.[Cl-] [DMC, dodecyltrimethylammonium chloride]","Grading points, Sapstain",[3],1 points
same,MIC,[4]; [13],15 µg/mL
same,MIC,[4]; [14],15 µg/mL
same,MIC,[4]; [15],4 µg/mL
"CCCCCCCC[N+](C)(C)CCCCCCCC.[Cl-] [Dioctyldimethylammonium chloride, dioctyldimethylammonium chloride]",synergism with Na-2-ethylhexanoate (in words),[3],proved
same,"Growth of fungi, Molds (score)",[1]; […] active ingredients,1.5
same,"Growth of fungi, Sapstain (score)",[2]; […] active ingredients,1
CCCCC(CC)C(=O)O (stereo not shown) [2-ethyl hexanoic acid],MIC,[4]; [13],50 µg/mL
same,MIC,[4]; [14],> 100 µg/mL
same,MIC,[4]; [15],> 1000 µg/mL
same,pKa,[6],4.81
C/C=C/C=C/C(=O)O [Sorbic acid],MIC,[4]; [16],50 µg/mL
same,MIC,[4]; [17],100 µg/mL
same,MIC,[4]; [18],> 100 µg/mL
same,pKa,[6],4.77
"CCCCC(CC)C(=O)O (stereo not shown) [Na--2-ethylhexanoate, Na salt of 2-ethyl hexanoic acid]","Growth of fungi, Freshly cut pine sapwood, Sapstain (score)",[7],20
same,"Grade points, Sapstain, Treated side",[8]; [19],20 points
same,"Grade points, Sapstain, Treated side",[8]; [20],16 points
same,"Growth of fungi, Freshly cut pine sapwood, Molds (surface mildew) (score)",[9],20
same,"Growth of fungi, Molds (score)",[1]; […] active ingredients,10
same,"Growth of fungi, Freshly cut pine sapwood, Molds (surface mildew) (score), value in square brackets",[1]; [21],2
same,control of mold growth (in words),[1]; […] a.i. solution,quite ineffective in controlling mold and stain fungi
same,synergism with trimethylcoco ammonium chloride (in words),[1],most obvious
same,"Growth of fungi, Sapstain (score)",[2]; […] active ingredients,10
same,"Growth of fungi, Freshly cut pine sapwood, Sapstain (score)","[2]; TABLE 1, […] active ingredients, pH 8.5-10, 3 weeks, 20° C., 100% R.H., average of 5 replicates, value without brackets",20
same,"Growth of fungi, Freshly cut pine sapwood, Sapstain (score), value in square brackets",[2]; [21],2
same,control of sapstain (in words),[2]; […] a.i. solution,quite ineffective in controlling mold and stain fungi
same,"Grade points, Mildew growth, Treated side",[10],20 points
"CCCCCCCCCC[N+](C)(C)CCCCCCCCCC.[Cl-] [DDC, didecyldimethylammonium chloride]",synergism with Na-2-ethylhexanoate (in words),[3],proved
same,"Grade points, Sapstain, Treated side",[8]; [19],12 points
same,"Grade points, Sapstain, Treated side",[8]; [20],5 points
same,"Grade points, Mildew growth, Treated side",[10],11 points
Na-iso-octanoate,"Growth of fungi, Freshly cut pine sapwood, Molds (score)",[1]; [22],20
same,synergism with trimethylcoco ammonium chloride (in words),[1],not as clear
same,"Growth of fungi, Freshly cut pine sapwood, Sapstain (score)",[2]; [23],20
Na-isononanoate,"Growth of fungi, Freshly cut pine sapwood, Molds (score)",[1]; [22],20
same,synergism with trimethylcoco ammonium chloride (in words),[1],quite obvious; also recorded: most obvious
same,"Growth of fungi, Freshly cut pine sapwood, Sapstain (score)",[2]; [23],20
CCCCCCC(=O)O [Na-heptanoate],"Growth of fungi, Freshly cut pine sapwood, Molds (score)",[1]; [11],20
same,"Growth of fungi, Freshly cut pine sapwood, Sapstain (score)",[2]; [12],7
CCCCCC(=O)O [Capronic acid],pKa,[6],4.83
CCCCCCCC(=O)O [Na-caprylate],"Growth of fungi, Freshly cut pine sapwood, Molds (score)",[1]; [11],20
same,"Growth of fungi, Freshly cut pine sapwood, Sapstain (score)",[2]; [12],10.5
O=C(O)c1ccccc1 [Benzoic acid],MIC,[4]; [13],50 µg/mL
same,MIC,[4]; [14],> 100 µg/mL
same,MIC,[4]; [15],> 100 µg/mL
CC(=O)Oc1ccccc1C(=O)O [Acetylsalicylic acid],MIC,[4]; [13],25 µg/mL
same,MIC,[4]; [14],> 100 µg/mL
same,MIC,[4]; [15],> 1000 µg/mL
